From patent US20140155406A1, “4-IMIDAZOPYRIDAZIN-1-YL-BENZAMIDES AND 4-IMIDAZOTRIAZIN-1-YL-BENZAMIDES BTK INHIBITORS” (priority 2011, published 2014)
pEC50: −log10 of the molar value.

Columns and labels:
Assay type in all cases: biochemical
Lck enzyme = biological target: T1, Lck enzyme (Homo sapiens, UniProt P06239); test: Lck enzyme activity, IMAP fluorescence polarization assay; details: 60 min pre-incubation, 6 μM ATP (Km)
T1 construct: purchased Millipore 14-442
Method: Lck enzyme activity is measured using the IMAP (immobilized metal ion affinity-based fluorescence polarization) assay as outlined below.
Lck enzyme (Millipore catalog#14-442), is diluted to 0.4 U/mL in KR buffer (10 mM Tris-HCl, 10 mM MgCl2, 0.01% Tween-20, 0.05% NaN3, 1 mM DTT, 2 mM MnCl2, pH 7.2). Serial dilution log 10 from 2 mM to 63.2 nM of test compounds are made in 100% DMSO. The dilutions in DMSO are then diluted 50-fold in KR-buffer of which 5 μl is used in the assay, leading to a final compound concentration range in the assay from 10 μM to 0.316 nM. 5 μL/well of test compound in KR buffer (final DMSO concentration in the assay is 1%) is mixed with 5 μl/well of 0.4 U/mL Lck enzyme (final concentration in the assay is 0.1 U/mL). Test compounds and Lck enzyme are pre-incubated 60 minutes at room temperature, before adding 5 μL/well of 400 nM Fluorescin labeled substrate peptide (p34cdc2 substrate peptide, e.g. #R7157/#R7172, Molecular Devices) in KR-buffer. Final peptide substrate concentration in assay is 100 nM. The kinase assay is started by adding 5 μL/well of 24 μM ATP in KR-buffer (final ATP concentration is 6 μM ATP, Km ATP in Lck IMAP assay). Following incubation for 2 h at room temperature the enzyme reaction is stopped by adding 40 μL/well IMAP Progressive Binding Solution (according to suppliers (Molecular Devices) protocol using 75% 1× buffer A and 25% 1× buffer B with 1:600 Progressive Binding Solution). After 60 min incubation at room temperature in the dark the FP signal is read. Fluorescence at 535 nm is measured using parallel and perpendicular filters to determine differences in rotation due to binding of the phosphorylated substrate peptide to the beads. Values are calculated as percentage of the difference in readout (ΔmPi) of the controls with and without ATP. EC50 values are determined by curve fitting of the experimental results using Activity Base.

FynT enzyme = biological target: T2, FynT enzyme (Homo sapiens, UniProt P06241); test: FynT enzyme activity, IMAP fluorescence polarization assay; details: 60 min pre-incubation, 0.2 μM ATP (Km)
T2 construct: purchased Biomol SE-287
Method: FynT enzyme activity is measured using the IMAP (immobilized metal ion affinity-based fluorescence polarization) assay as outlined below.
FynT enzyme (Biomol catalog# SE-287), is diluted to 0.5 μg/mL in KR buffer (10 mM Tris-HCl, 10 mM MgCl2, 0.01% Tween-20, 0.05% NaN3, 1 mM DTT, 2 mM MnCl2, pH 7.2). Serial dilution log 10 from 2 mM to 63.2 nM of test compounds are made in 100% DMSO. The dilutions in DMSO are then diluted 50-fold in KR-buffer of which 5 μl is used in the assay, leading to a final compound concentration range in the assay from 10 μM to 0.316 nM. 5 μL/well of test compound in KR buffer (final DMSO concentration in the assay is 1%) is mixed with 5 μl/well of 0.5 μg/mL FynT enzyme (final concentration in the assay is 125 ng/mL). Test compounds and FynT enzyme are pre-incubated 60 minutes at room temperature, before adding 5 μL/well of 400 nM Fluorescin labeled substrate peptide (p34cdc2 substrate peptide, e.g. #R7157/#R7172, Molecular Devices) in KR-buffer. Final peptide substrate concentration in assay is 100 nM. The kinase assay is started by adding 5 μL/well of 0.8 μM ATP in KR-buffer (final ATP concentration is 0.2 μM ATP, Km ATP in FynT IMAP assay). Following incubation for 2 h at room temperature the enzyme reaction is stopped by adding 40 μL/well IMAP Progressive Binding Solution (according to suppliers (Molecular Devices) protocol using 75% 1× buffer A and 25% 1× buffer B with 1:600 Progressive Binding Solution). After 60 min incubation at room temperature in the dark the FP signal is read. Fluorescence at 535 nm is measured using parallel and perpendicular filters to determine differences in rotation due to binding of the phosphorylated substrate peptide to the beads. Values are calculated as percentage of the difference in readout (ΔmPi) of the controls with and without ATP. EC50 values are determined by curve fitting of the experimental results using Activity Base.

Src enzyme = biological target: T3, Src enzyme (Homo sapiens, UniProt P12931); test: Src enzyme activity, IMAP fluorescence polarization assay; details: 60 min pre-incubation, 4 μM ATP (Km)
T3 construct: purchased Millipore 14-326
Method: Src enzyme activity is measured using the IMAP (immobilized metal ion affinity-based fluorescence polarization) assay as outlined below.
Src enzyme (Millipore catalog#14-326), is diluted to 0.8 U/mL in KR buffer (10 mM Tris-HCl, 10 mM MgCl2, 0.01% Tween-20, 0.05% NaN3, 1 mM DTT, 2 mM MnCl2, pH 7.2).
Serial dilution log 10 from 2 mM to 63.2 nM of test compounds are made in 100% DMSO. The dilutions in DMSO are then diluted 50-fold in KR-buffer of which 5 μl is used in the assay, leading to a final compound concentration range in the assay from 10 μM to 0.316 nM. 5 μL/well of test compound in KR buffer (final DMSO concentration in the assay is 1%) is mixed with 5 μl/well of 0.8 U/mL Src enzyme (final concentration in the assay is 0.2 U/mL). Test compounds and Src enzyme are pre-incubated 60 minutes at room temperature, before adding 5 μL/well of 400 nM Fluorescin labeled substrate peptide (p34cdc2 substrate peptide, e.g. #R7157/#R7172, Molecular Devices) in KR-buffer. Final peptide substrate concentration in assay is 100 nM. The kinase assay is started by adding 5 μL/well of 16 μM ATP in KR-buffer (final ATP concentration is 4 μM ATP, Km ATP in Src IMAP assay). Following incubation for 2 h at room temperature the enzyme reaction is stopped by adding 40 μL/well IMAP Progressive Binding Solution (according to suppliers (Molecular Devices) protocol using 75% 1× buffer A and 25% 1× buffer B with 1:600 Progressive Binding Solution). After 60 min incubation at room temperature in the dark the FP signal is read. Fluorescence at 535 nm is measured using parallel and perpendicular filters to determine differences in rotation due to binding of the phosphorylated substrate peptide to the beads. Values are calculated as percentage of the difference in readout (ΔmPi) of the controls with and without ATP. EC50 values are determined by curve fitting of the experimental results using Activity Base.

T2 sequence (P06241 1-534 isoform P06241-2): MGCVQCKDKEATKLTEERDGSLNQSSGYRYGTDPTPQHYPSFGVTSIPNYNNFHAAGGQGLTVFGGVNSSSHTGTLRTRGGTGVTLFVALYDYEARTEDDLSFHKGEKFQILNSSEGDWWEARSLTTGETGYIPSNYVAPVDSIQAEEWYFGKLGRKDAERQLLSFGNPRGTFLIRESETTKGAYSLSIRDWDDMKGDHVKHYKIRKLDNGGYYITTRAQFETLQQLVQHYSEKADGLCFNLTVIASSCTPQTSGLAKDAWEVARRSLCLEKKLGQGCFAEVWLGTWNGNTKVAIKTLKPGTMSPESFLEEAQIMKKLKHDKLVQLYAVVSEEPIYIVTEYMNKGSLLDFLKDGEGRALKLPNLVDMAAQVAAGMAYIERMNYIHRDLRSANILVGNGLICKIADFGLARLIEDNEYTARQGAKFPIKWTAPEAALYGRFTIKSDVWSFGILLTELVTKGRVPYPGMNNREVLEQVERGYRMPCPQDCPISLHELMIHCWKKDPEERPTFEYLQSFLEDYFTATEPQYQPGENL
T3 sequence (P12931 whole entry): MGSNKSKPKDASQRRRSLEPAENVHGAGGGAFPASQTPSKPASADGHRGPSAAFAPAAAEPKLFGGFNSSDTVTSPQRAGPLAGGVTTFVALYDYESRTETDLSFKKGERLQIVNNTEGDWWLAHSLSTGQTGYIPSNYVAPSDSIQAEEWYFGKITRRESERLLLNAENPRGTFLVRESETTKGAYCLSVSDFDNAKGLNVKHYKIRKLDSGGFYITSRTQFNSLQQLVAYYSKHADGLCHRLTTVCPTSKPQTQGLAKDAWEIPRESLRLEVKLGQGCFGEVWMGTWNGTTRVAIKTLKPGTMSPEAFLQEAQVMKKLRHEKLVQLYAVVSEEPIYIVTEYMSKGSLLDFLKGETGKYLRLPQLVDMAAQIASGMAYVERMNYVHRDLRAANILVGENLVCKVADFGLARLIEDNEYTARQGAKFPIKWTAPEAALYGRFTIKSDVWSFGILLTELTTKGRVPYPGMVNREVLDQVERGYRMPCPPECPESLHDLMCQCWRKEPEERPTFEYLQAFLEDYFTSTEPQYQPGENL
T1 sequence (P06239 whole entry): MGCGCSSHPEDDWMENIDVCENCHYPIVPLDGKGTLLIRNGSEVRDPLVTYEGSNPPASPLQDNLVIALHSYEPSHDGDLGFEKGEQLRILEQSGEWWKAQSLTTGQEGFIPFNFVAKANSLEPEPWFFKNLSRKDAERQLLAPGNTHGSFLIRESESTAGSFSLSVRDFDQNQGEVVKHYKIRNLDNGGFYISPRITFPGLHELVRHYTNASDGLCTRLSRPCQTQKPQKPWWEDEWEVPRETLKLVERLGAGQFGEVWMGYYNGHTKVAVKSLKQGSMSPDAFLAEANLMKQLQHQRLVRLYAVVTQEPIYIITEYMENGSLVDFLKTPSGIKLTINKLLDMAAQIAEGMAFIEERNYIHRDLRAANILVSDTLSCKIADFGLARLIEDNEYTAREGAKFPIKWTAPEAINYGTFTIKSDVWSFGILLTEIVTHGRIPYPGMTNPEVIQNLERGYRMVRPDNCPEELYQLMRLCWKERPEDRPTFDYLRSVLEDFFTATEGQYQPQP

| SMILES | pEC50 (Lck enzyme) | pEC50 (FynT enzyme) | pEC50 (Src enzyme) |
| --- | --- | --- | --- |
| COC/C=C/C(=O)N[C@@H](C)c1nc(-c2ccc(C(=O)Nc3cc(C(F)(F)F)ccn3)cc2)c2c(C)nccn12 [Example 6, (S,E)-4-(3-(1-(4-Methoxybut-2-enamido)ethyl)-8-methylimidazo[1,5-a]pyrazin-1-yl)-N-(4-(trifluoromethyl)pyridin-2-yl)benzamide] | ≤ 6.00 | ≤ 6.00 | ≤ 6.00 |
| Cc1nccn2c([C@@H]3CCCN3C(=O)/C=C/CN3CCCC3)nc(-c3ccc(C(=O)Nc4ccccn4)cc3)c12 [Example 25, (S,E)-4-(8-methyl-3-(1-(4-(pyrrolidin-1-yl)but-2-enoyl)pyrrolidin-2-yl)imidazo[1,5-a]pyrazin-1-yl)-N-(pyridin-2-yl)benzamide] | ≤ 6.00 | ≤ 6.00 | ≤ 6.00 |
| Cc1nccn2c([C@@H]3CCCCN3C(=O)/C=C/CN3CCCC3)nc(-c3ccc(C(=O)Nc4cc(C(F)(F)F)ccn4)cc3)c12 [Example 21, (S,E)-4-(8-methyl-3-(1-(4-(pyrrolidin-1-yl)but-2-enoyl)piperidin-2-yl)imidazo[1,5-a]pyrazin-1-yl)-N-(4-(trifluoromethyl)pyridin-2-yl)benzamide] | ≤ 6.00 | ≤ 6.00 | ≤ 6.00 |
| C=CS(=O)(=O)N1CCCC[C@H]1c1nc(-c2ccc(C(=O)Nc3cc(CCC)ccn3)cc2)c2c(C)nccn12 [Example 4, (S)-4-(8-Methyl-3-(1-(vinylsulfonyl)piperidin-2-yl)imidazo[1,5-a]pyrazin-1-yl)-N-(4-propylpyridin-2-yl)benzamide] | ≤ 6.00 | ≤ 6.00 | ≤ 6.00 |
| CC#CC(=O)N[C@@H](C)c1nc(-c2ccc(C(=O)Nc3cc(C(F)(F)F)ccn3)cc2)c2c(C)nccn12 [Example 7, (S)-4-(3-(1-But-2-ynamidoethyl)-8-methylimidazo[1,5-a]pyrazin-1-yl)-N-(4-(trifluoromethyl)pyridin-2-yl)benzamide] | ≤ 6.00 | ≤ 6.00 | ≤ 6.00 |
| CC#CC(=O)N[C@@H](C)c1nc(-c2ccc(C(=O)Nc3cc(CCC)ccn3)cc2)c2c(C)nccn12 [Example 38, (S)-4-(3-(1-but-2-ynamidoethyl)-8-methylimidazo[1,5-a]pyrazin-1-yl)-N-(4-propylpyridin-2-yl)benzamide] | ≤ 6.00 | ≤ 6.00 | ≤ 6.00 |
| CCCc1ccnc(NC(=O)c2ccc(-c3nc([C@H](C)NC(=O)/C=C/CN(C)C)n4ccnc(C)c34)cc2)c1 [Example 28, (S,E)-4-(3-(1-(4-(dimethylamino)but-2-enamido)ethyl)-8-methylimidazo[1,5-a]pyrazin-1-yl)-N-(4-propylpyridin-2-yl)benzamide] | ≤ 6.00 | ≤ 6.00 | ≤ 6.00 |
| C=CC(=O)N[C@@H](C)c1nc(-c2ccc(C(=O)Nc3cc(C(F)(F)F)ccn3)cc2)c2c(C)nccn12 [Example 8, (S)-4-(3-(1-Acrylamidoethyl)-8-methylimidazo[1,5-a]pyrazin-1-yl)-N-(4-(trifluoromethyl)pyridin-2-yl)benzamide] | ≤ 6.00 | ≤ 6.00 | ≤ 6.00 |
| CCCc1ccnc(NC(=O)c2ccc(-c3nc([C@H](C)N(C)C(=O)/C=C/CN(C)C)n4ccnc(C)c34)cc2)c1 [Example 18, (S,E)-4-(3-(1-(4-(dimethylamino)-N-methylbut-2-enamido)ethyl)-8-methylimidazo[1,5-a]pyrazin-1-yl)-N-(4-propylpyridin-2-yl)benzamide] | ≤ 6.00 | ≤ 6.00 | ≤ 6.00 |
| CC#CC(=O)N1CCC[C@H]1c1nc(-c2ccc(C(=O)Nc3cc(C)ccn3)cc2)c2c(C)nccn12 [Example 15, (S)-4-(3-(1-but-2-ynoylpyrrolidin-2-yl)-8-methylimidazo[1,5-a]pyrazin-1-yl)-N-(4-methylpyridin-2-yl)benzamide] | ≤ 6.00 | ≤ 6.00 | ≤ 6.00 |

Second part, the molecule after the results:

| pEC50 (Lck enzyme) | pEC50 (FynT enzyme) | pEC50 (Src enzyme) | SMILES |
| --- | --- | --- | --- |
| ≤ 6.00 | ≤ 6.00 | ≤ 6.00 | C=CC(=O)N1CCC[C@H]1c1nc(-c2ccc(C(=O)Nc3cc(C#N)ccn3)cc2)c2c(C)nccn12 [Example 13, (S)-4-(3-(1-Acryloylpyrrolidin-2-yl)-8-methylimidazo[1,5-a]pyrazin-1-yl)-N-(4-cyanopyridin-2-yl)benzamide] |
| ≤ 6.00 | ≤ 6.00 | ≤ 6.00 | C=CC(=O)N1CCC[C@H]1c1nc(-c2ccc(C(=O)Nc3cc(C(F)(F)F)ccn3)cc2)c2c(C)nccn12 [Example 10, (S)-4-(3-(1-Acryloylpyrrolidin-2-yl)-8-methylimidazo[1,5-a]pyrazin-1-yl)-N-(4-(trifluoromethyl)pyridin-2-yl)benzamide] |
| ≤ 6.00 | ≤ 6.00 | ≤ 6.00 | Cc1nccn2c([C@@H]3CCCCN3C(=O)/C=C/CN(C)C)nc(-c3ccc(C(=O)Nc4cc(C(F)(F)F)ccn4)cc3)c12 [Example 37, (S,E)-4-(3-(1-(4-(dimethylamino)but-2-enoyl)piperidin-2-yl)-8-methylimidazo[1,5-a]pyrazin-1-yl)-N-(4-(trifluoromethyl)pyridin-2-yl)benzamide] |
| ≤ 6.00 | ≤ 6.00 | ≤ 6.00 | C=CC(=O)N1CCC[C@H]1c1nc(-c2ccc(C(=O)Nc3ccccn3)cc2)c2c(C)nccn12 [Example 19, (S)-4-(3-(1-acryloylpyrrolidin-2-yl)-8-methylimidazo[1,5-a]pyrazin-1-yl)-N-(pyridin-2-yl)benzamide] |
| ≤ 6.00 | ≤ 6.00 | ≤ 6.00 | C=CC(=O)N1CCCC[C@H]1c1nc(-c2ccc(C(=O)Nc3cc(C(F)(F)F)ccn3)cc2)c2c(C)nccn12 [Example 27, (S)-4-(3-(1-acryloylpiperidin-2-yl)-8-methylimidazo[1,5-a]pyrazin-1-yl)-N-(4-(trifluoromethyl)pyridin-2-yl)benzamide] |
